The numbers were not newly measured in US9062086B2, “N-acetyl L-cysteine chelates and methods for making and using the same” (Viva Pharmaceutical, Inc., priority 2013, dated 2015), which cites them from elsewhere.

pKi: −log10 of the molar value.

The target of series [1] is c-Glutamylcysteine synthetase (Homo sapiens, UniProt P48506). Conditions: read-out: Ki (feedback inhibition by GSH); background statement.
For series [2] the following is noted: much higher than NAC; background statement.

c-Glutamylcysteine synthetase, sequence (P48506 whole entry): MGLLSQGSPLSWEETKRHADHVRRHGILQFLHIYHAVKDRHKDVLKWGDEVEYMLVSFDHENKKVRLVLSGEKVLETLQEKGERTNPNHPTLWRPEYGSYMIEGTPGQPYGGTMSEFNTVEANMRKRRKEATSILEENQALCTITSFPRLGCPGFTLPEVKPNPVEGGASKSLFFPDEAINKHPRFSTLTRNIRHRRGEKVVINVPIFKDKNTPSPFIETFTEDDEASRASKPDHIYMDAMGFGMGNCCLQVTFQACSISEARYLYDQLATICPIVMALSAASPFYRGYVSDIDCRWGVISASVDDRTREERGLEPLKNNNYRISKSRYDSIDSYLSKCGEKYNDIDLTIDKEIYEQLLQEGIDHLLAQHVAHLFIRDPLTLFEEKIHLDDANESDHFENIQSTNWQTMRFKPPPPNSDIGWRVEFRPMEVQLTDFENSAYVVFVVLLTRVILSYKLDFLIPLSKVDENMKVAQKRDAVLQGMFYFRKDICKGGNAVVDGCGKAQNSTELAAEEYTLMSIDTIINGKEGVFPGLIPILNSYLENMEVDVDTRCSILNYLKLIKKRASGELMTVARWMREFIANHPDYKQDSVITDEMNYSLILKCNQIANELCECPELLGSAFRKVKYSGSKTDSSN

By pKi is commonly meant the negative decadic logarithm of the Ki, by convention in mol/L. Turning to `N[C@@H](CCC(=O)N[C@@H](CS)C(=O)NCC(=O)O)C(=O)O` [GSH, glutathione], the pKi in series [1] is ~2.82.
With `CCOC(=O)[C@H](CS)NC(C)=O` [NACET, N-acetylcysteine ethyl ester], the bioavailability result in series [2] is given as “around 60%”.
